Assay results: patent publication US20240285587A1, “NOVEL THERAPEUTIC AGENT THAT SUPPRESSES METASTASIS AND PROLIFERATION OF OSTEOSARCOMA AND GLIOMA” (JAPANESE FOUNDATION FOR CANCER RESEARCH, priority 2021, published 2024)
“Also recorded” adds a separate entry of the source.

Key:
[1] = system: MG-63 cells; test: Immunostaining of phosphorylated AKT and F-actin in LPA-treated osteosarcoma cells; assay type: cell-based, human; details: 100 nM LPA for 4 hours, serum-free MEM
Method: LPA receptors are G-protein-coupled receptors, and LPAR1 is known to activate three G proteins, Gαi/0, Gαq/11, and Gα12/13, and to activate a signal transduction system including a PI3K/AKT pathway. MG-63 cells were cultured with serum-free MEM medium overnight, then treated with 100 nM LPA for 4 hours, immunostained through a conventional method with an anti-phosphorylated AKT antibody (an antibody to detect phosphorylation of S473), rhodamine-labeled phalloidin (for binding to F actin), and Hoechst 33342 (for staining nuclei), and observed with a microscope (FIG. 3B). […] Although results are not shown herein, time-lapse analysis with a microscope was carried out to analyze effects of LPA on osteosarcoma cells, and it was observed that osteosarcoma cells formed numerous protrusions (pseudopodia) as a result of the LPA treatment.

[2] = system: MG-63, HuO9, or G-292 cells; test: Transwell chamber migration ability of osteosarcoma cells with LPA as chemoattractant; assay type: cell-based, human; details: 4 to 6 hours, MG-63, HuO9, G-292
Method: Next, the influence of LPA on migration ability and invasive ability was analyzed (FIG. 3C). Analysis of migration ability was carried out by using a Transwell chamber (Corning Incorporated, 8.0 μm pore). In an insert, 1×10^5 MG-63, HuO9, or G-292 cells suspended in 0.3 mL of serum-free MEM medium were seeded with 10 nM LPA as a chemoattractant in 1.25 mL of serum-free MEM medium put in the lower chamber, left to stand for 4 to 6 hours and then fixed, and subjected to analysis of migration ability (LPA). Separately, cells after being pretreated with 100 nM Ki16425 (Santa Cruz Biotechnology, Inc.), which is an LPAR antagonist, for 1 hour were collected, seeded in an insert, and subjected to analysis of migration ability in the presence of 100 nM Ki16425 (LPA+Ki16425).

[3] = system: human glioblastoma cells Onda7, YKG-1, and 42-MG-BA; test: Transwell chamber migration ability of glioblastoma cells with LPA; assay type: cell-based; details: 24 hours
Method: Accordingly, the effects of LPAR1 antagonists to suppress metastasis and cell proliferation are also expected to be exerted for glioma. In view of the fact that glioblastoma is the highest malignancy tumor among gliomas as described above, migration ability with addition of LPA was analyzed with glioblastoma cell strains. Analysis was performed to determine whether the mobility of glioblastoma cells is augmented in the presence of LPA. In a Transwell chamber, the human glioblastoma cells Onda7 (obtained from JCRB Cell Bank), YKG-1 (obtained from JCRB Cell Bank), and 42-MG-BA (obtained from DSMZ) were seeded at 1×10^5 cells each, with addition of 100 nM LPA as a migration factor to the underlying chamber, and 24 hours thereafter cells that migrated to the underlying chamber were stained with crystal violet and quantified. Before being collected, the cells were pretreated with 100 nM Ki16425, which is an LPAR antagonist, for 1 hour, and subjected to analysis of migration ability still in the presence of 100 nM Ki16425.

[4] = molecular target: T1, LPAR3 (Homo sapiens, UniProt Q9UBY5); details: cited from earlier work
T1 sequence (Q9UBY5 1-353): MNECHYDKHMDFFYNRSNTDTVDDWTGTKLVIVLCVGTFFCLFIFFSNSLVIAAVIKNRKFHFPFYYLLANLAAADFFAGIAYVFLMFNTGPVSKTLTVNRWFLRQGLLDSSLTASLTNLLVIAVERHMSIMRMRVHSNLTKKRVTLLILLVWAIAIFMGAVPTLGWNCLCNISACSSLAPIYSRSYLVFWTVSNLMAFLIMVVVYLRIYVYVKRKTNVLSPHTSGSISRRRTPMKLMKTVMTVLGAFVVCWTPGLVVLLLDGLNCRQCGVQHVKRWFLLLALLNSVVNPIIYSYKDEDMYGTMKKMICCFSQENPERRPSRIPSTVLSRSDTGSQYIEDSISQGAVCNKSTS

[5] = molecular target: LPAR1 (Homo sapiens, UniProt Q92633); details: cited from earlier work
Chain of LPAR1 (Q92633 whole entry, species assumed): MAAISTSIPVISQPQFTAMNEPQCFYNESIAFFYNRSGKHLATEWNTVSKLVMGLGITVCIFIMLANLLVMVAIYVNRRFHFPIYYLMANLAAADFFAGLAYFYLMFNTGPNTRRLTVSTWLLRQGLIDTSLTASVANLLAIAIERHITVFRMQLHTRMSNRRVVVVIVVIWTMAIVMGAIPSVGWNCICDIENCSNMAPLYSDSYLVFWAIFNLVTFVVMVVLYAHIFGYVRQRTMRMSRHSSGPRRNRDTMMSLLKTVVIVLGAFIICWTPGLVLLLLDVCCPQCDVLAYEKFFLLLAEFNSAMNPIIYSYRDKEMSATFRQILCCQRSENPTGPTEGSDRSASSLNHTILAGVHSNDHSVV

[6] = system: osteosarcoma cells MG-63, HuO9, and G-292; test: Matrigel Invasion Chamber invasive ability of osteosarcoma cells with platelet releasate; assay type: cell-based, human; details: cells treated with Ki16425 in advance (100 nM), platelet releasate in underlying chamber, 22 to 24 hours
Method: The osteosarcoma cells MG-63, HuO9, and G-292 were each seeded in an insert (upper chamber) of a Matrigel Invasion Chamber (Corning Incorporated) at 1.5×10^5 cells/0.5 mL with the platelet releasate put in the lower chamber, and left to stand at 37° C. for 22 to 24 hours, and then cells on the top surface of the insert were completely wiped away, fixation was performed with 4% paraformaldehyde, and cells on the bottom surface of the membrane of the insert, i.e., invaded cells were stained with 1% crystal violet (FIG. 1B).
(§1) In addition, analysis of invasive ability was carried out by using a Matrigel Invasion Chamber in the same manner as for FIG. 1C (FIG. 3D). […] Accordingly, the reduction in migration ability and invasive ability due to Ki16425 was confirmed not to be caused by cytotoxicity to the cells.

[7] = system: G-292 and MG-63 cells; test: Cell viability / cytotoxicity of osteosarcoma cells with Ki16425 (FIG. 3E); assay type: cell-based, human
Method: as §1

[8] = system: human glioblastoma cells Onda7, YKG-1, and 42-MG-BA; test: Glioblastoma cell viability with LPAR1 antagonists, CellTiter-Gro; assay type: cell-based; details: different concentrations, 72 hours; Onda7, YKG-1, 42-MG-BA
Method: Next, examination was carried out to determine whether LPAR1 antagonists had effects on viabilities of glioblastoma cells. On a 96-well plate, 1500 to 3000 cells of each of the human glioblastoma cells Onda7, YKG-1, and 42-MG-BA were seeded and treated with any of the LPAR1 antagonists Ki16425, BMS-986020, and ONO-7300243 in different concentrations, and the cell viabilities 72 hours thereafter were determined with CellTiter-Gro reagent (FIG. 10A).

[9] = molecular target: LPAR2 (Homo sapiens, UniProt Q9HBW0); details: cited from earlier work
Chain of LPAR2 (Q9HBW0 whole entry, species assumed): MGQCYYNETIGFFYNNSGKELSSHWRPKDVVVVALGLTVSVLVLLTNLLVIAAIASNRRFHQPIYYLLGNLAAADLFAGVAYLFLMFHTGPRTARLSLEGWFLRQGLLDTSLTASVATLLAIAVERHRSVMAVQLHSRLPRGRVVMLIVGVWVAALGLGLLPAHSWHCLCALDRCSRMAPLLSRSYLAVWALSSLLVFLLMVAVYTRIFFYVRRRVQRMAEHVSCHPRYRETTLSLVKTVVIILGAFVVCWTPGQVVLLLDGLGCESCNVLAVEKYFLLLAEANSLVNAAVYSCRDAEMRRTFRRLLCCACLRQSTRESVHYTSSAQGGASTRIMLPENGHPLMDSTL

[10] = system: HuO9/Akaluc cells; test: Lung metastasis mouse model, intravenously injected HuO9/Akaluc cells, bioluminescent imaging; assay type: in vivo
Method: Into each female SCID-beige mouse (C.B-lgh-1b/GbmsTac-Prkdc^scid-Lyst^bgN7, Charles River Laboratories Japan, Inc.), 1×10^6 MG-63/Akaluc/sgCTRL or MG-63/Akaluc/sgLPAR #1 cells were intravenously injected, 3 hours and 7 days after, 100 μL of 5 mM AkaLumine-HCL was intraperitoneally injected and in vivo luminescence imaging (bioluminescent imaging, BLI) was carried out. The BLI was carried out by using an IVIS imaging system (PerkinElmer, Inc.). […] On the day of intravenous injection of cells (Day 0), the both types of cells were captured in lungs to the same degree.
Next, effects of an LPAR1 antagonist was examined. Analysis with a mouse model was carried out by using ONO-7300243 (Cayman Chemical Company), which is one of LPAR1 inhibitors. […] In the experiment, ONO-7300243 was used at different doses of 10 mg/kg and 30 mg/kg.
The BLI was carried out for 1.5 to 3 hours, 1 day, and 2 days after the administration (FIG. 6B). Immediately after the administration, it was observed that HuO9/Akaluc cells were captured in lungs at any dose.

[11] = system: osteosarcoma cells G-292; test: Osteosarcoma G-292 subcutaneous xenograft model, tumor volume; assay type: in vivo; details: oral 30 mg/kg, 5 consecutive days and withdrawal for 2 days from Day 1, from Day 14, SCID-beige mouse
Method: Into each female SCID-beige mouse, 8.2×10^5 cells of the osteosarcoma cells G-292 were subcutaneously transplanted (Day 0), and on the day after the transplantation (Day 1) oral administration according to a dosing schedule of continuous administration of the LPAR1 antagonist BMS-986020 of 30 mg/kg for 5 consecutive days and withdrawal for 2 days was initiated (FIG. 8A). The proliferation of tumor was analyzed by measuring the major axis and minor axis of tumor and calculating the tumor volume as major axis (mm)×[minor axis (mm)]^2×½.

[12] = system: Onda7 cells; test: Glioblastoma intracranial xenograft model (Onda7 with Akaluc luciferase), IVIS imaging; assay type: in vivo, mouse; details: oral 50 mg/kg or 100 mg/kg, 5 days on/2 days off from 3 weeks after transplantation; from 2 weeks after initiation, even for 50 mg/kg
Method: Examination was carried out to determine whether an LPAR1 antagonist exerts antitumor effect even for glioblastoma. Into each female SCID-beige mouse, 2×10^5 Onda7 cells with Akaluc luciferase introduced therein were intracranially transplanted. Three weeks after the transplantation, oral administration according to a dosing schedule of continuous administration of the LPAR1 antagonist BMS-986020 of 50 mg/kg or 100 mg/kg for 5 consecutive days and withdrawal for 2 days was initiated (FIG. 11A). For tumor volume, the enzymatic activity of AkaLuc luciferase stably expressed in Onda7 cells was quantified with an IVIS imaging system (FIG. 11B).

lysophosphatidic acid [LPA]
phosphorylated AKT (S473) [1]: Activated AKT was found
migration ability (effect of LPA) ([2]; 10 nM LPA as chemoattractant): migration ability largely enhanced
migration ability (effect of LPA) ([3]; 100 nM LPA as migration factor): migration ability was largely enhanced

Cc1noc(-c2ccc(CSCCC(=O)O)cc2)c1NC(=O)OC(C)c1ccccc1Cl (stereo not drawn) [Ki16425]
inhibitory effect to LPAR3 [4]: exhibits inhibitory effect
inhibitory effect to LPAR1 [5]: exhibits inhibitory effect
invasive ability [6]: cancellation of the effects of platelet releasate; also recorded: largely reduced invasive ability
cytotoxicity ([7]; 100 nM, 4 to 6 hours (migration) or 22 to 24 hours (invasion)): no cytotoxicity was found
cell viabilities ([7]; cultured for 72 hours, Ki16425 at 500 nM or more, G-292 and MG-63): reduced cell viabilities
migration ability ([2]; 100 nM Ki16425 (1 hour pretreatment and during assay), 10 nM LPA in lower chamber): cancellation of the effects of LPA; also recorded: largely reduced migration ability
migration ability ([3]; 100 nM Ki16425 (1 hour pretreatment and during assay), 100 nM LPA): largely reduced migration ability
cell viabilities [8]: Reduced cell viabilities
inhibitory effect to LPAR2 [9]: exhibits inhibitory effect

COc1cc(C(=O)N(CCCc2ccccc2)Cc2ccc(CC(=O)O)cc2)cc(OC)c1C [ONO-7300243]
cell viabilities [8]: Reduced cell viabilities
Total Flux measured with the IVIS ([10]; Day 1, 30 mg/kg administration group vs solvent administration group): significant difference
Total Flux measured with the IVIS ([10]; Day 2, 10 mg/kg administration group vs 30 mg/kg administration group): significant difference
Total Flux measured with the IVIS ([10]; day of injection of cells, among the groups): no significant difference
osteosarcoma cells captured in lungs (BLI) / lung metastasis ([10]; oral 10 mg/kg and 30 mg/kg before i.v. HuO9/Akaluc cells, a day or two later, vs solvent administration group): lung metastasis is suppressed; also recorded: reduction of osteosarcoma cells captured in lungs

Cc1noc(-c2ccc(-c3ccc(C4(C(=O)O)CC4)cc3)cc2)c1NC(=O)O[C@H](C)c1ccccc1 [BMS-986020]
tumor volume / tumor proliferation ([11]; 30 mg/kg): significant tumor proliferation-suppressing effect
tumor volume / tumor proliferation ([11]; listed as BMS986020, 30 mg/kg): tumor proliferation is suppressed
proliferation of glioblastoma cells / relative tumor volume [12]: almost comparable to that at the transplantation
cell viabilities [8]: Reduced cell viabilities
